Here are results for twelve molecules from PMC8830292, “Anti-Toxoplasma gondii effect of lupane-type triterpenes from the bark of black alder (Alnus glutinosa) and identification of a potential target by reverse docking” (Parasite, 2022).

What is called inhibition is how much of the control response was suppressed. A word on the IC50: it is the point on the concentration scale where inhibition reaches its midpoint.

Series [1] concerns Toxoplasma gondii tachyzoites (strain RH, type I). Briefly: Screening at 10 μM: T. gondii parasite growth inhibition in Vero cells (enzyme immunoassay). In kind it is cell-based. The settings on record: for inhibition at 10 µM / parasite growth inhibition: 72 h, triplicate, 10 μM. How it is done:
(§1) All the experiments were performed in triplicate. Compound screening was performed at 10 μM in 96-well plates. Thus, 20,000 Vero cells contained in 200 μL of culture medium were filled in each well and left to adhere for 4 h at 37 °C and 5% of CO2. Then, 50,000 parasites contained in 50 μL of culture medium were filled, followed by 3 h of incubation in the same conditions. Wells were then emptied and 100 μL of solutions containing each drug at a final concentration of 10 μM were added. Incubation continued for 72 h.
(§2) The IC50 assays were processed in the same conditions as previously described. Dilutions were performed in a culture medium. The IC50 was determined using an adapted protocol from Doliwa et al.. Parasites and cells were first fixed with 100 μL of cold methanol for 5 min at −20 °C. Cells were then rehydrated with 100 μL of PBS at room temperature. Wells were then emptied and filled with 60 μL of a solution of anti-T. gondii rabbit antibody (Ref. 9070-0556, Biorad) diluted at 1/1000. After 1 hour of incubation at 37 °C, wells were washed three times with PBS, and 60 μL of anti-rabbit IgG horseradish conjugated goat antibody (Ref. 170-6515, Bio-Rad) at 1/1000 were added, followed by 1 h of incubation at 37 °C. The wells were washed three more times, and 200 μL of a solution of o-phenylenediamine dihydrochloride (Sigma, France) was added. After 15 min at room temperature, the enzymatic reaction was stopped by the addition of 50 μL of hydrochloric acid (HCl) 3 M. To finish, 200 μL of each well were transferred to a new well and a spectrophotometer reading was performed at 492 nm, corrected at 630 nm. Each experiment was performed with three controls: control with host cells alone, control with host cells and parasites without the drug for parasite multiplication, and control with host cells with parasites and pyrimethamine at 1 μM.

For series [2] the test system is unchanged. The series is described as follows: Half maximal inhibitory concentration (IC50) on T. gondii (enzyme immunoassay). The class given is cell-based. The settings on record: for Selectivity index (SI): SI = CC50/IC50 (Vero cells / T. gondii); for IC50: Toxoplasma gondii, T. gondii RH in Vero cells, 72 h. The method, then:
as §1, §2

A short description of series [3]: Cytotoxicity evaluation, Uptiblue viable cell-counting assay. Conditions: African green monkey. The method, then:
(§3) Vero cells (host cells of T. gondii tachyzoite) were purchased at ATCC (reference CCL-81), grown in Iscove Modified Dulbecco Media (IMDM) GlutaMAX medium (Gibco) supplemented with 5% decomplemented fetal calf serum with 1% penicillin/streptomycin. The culture was incubated at 37 °C and 5% CO2. Toxoplasma gondii tachyzoites (strain RH, type I) were grown in the same conditions as Vero cells except that the concentration of fetal calf serum was 2%.
(§4) The in vitro cytotoxicity was evaluated on Vero cell cultures using Uptiblue® viable cell-counting assay (Interchim, Montluçon, France). CC50 assays were performed in 96-well plates containing 20,000 Vero cells and 200 μL of culture medium identical to the one used for Vero cell maintenance. After 4 h of incubation, wells were emptied. The IC50 was performed with 100 μL of solutions containing the tested compounds with a final concentration range of 0–80 μM. After 72 h of incubation, wells were washed with 100 μL of phosphate-buffered saline (PBS) (Sigma-Aldrich, Saint-Quentin-Fallavier, France). Then, 100 μL of IMDM culture medium supplemented with 2% (v/v) of calf fetal serum and 10% (v/v) of Uptiblue® were added to each well. Plates were placed at 37 °C and 5% of CO2 for 3 h. Spectrophotometric measures were performed at 570 nm and corrected at 600 nm on an AMR-100 spectrophotometer (AllSheng, Hangzhou, China).

Series [4] relates to L. donovani. The arrangement: method as in earlier work. Conditions: 50 μM; cited from earlier work.
The subject of series [5] is Vero cells. Conditions: cited from earlier work.
The test system of series [6] is Plasmodium falciparum K1 strain. The arrangement: method as in PMID 21438586. The settings on record: cited from earlier work.
Series [7] has as its system Vero cells. The series is described as follows: Cytotoxicity evaluation, Uptiblue viable cell-counting assay. How it is done:
as §3, §4

The nature of series [8]: Solubility in DMSO. The class given is physicochemical. The method, then:
Stock solutions at 1 mg/mL were prepared in cell culture grade dimethyl sulfoxide (DMSO, PanReac AppliChem, Darmstadt, Germany). Subsequent dilutions were made in a culture medium identical to the one used for tachyzoite maintenance.

The subject of series [9] is T. gondii. The arrangement: method as in PMID 20441162. The settings on record: cited from earlier work.
Series [10] has as its system Vero cells. Further details: method as in PMID 20441162. The settings on record: cited from earlier work.
Series [11] deals with T. gondii. Further details: method as in PMID 23776166. Conditions: in vitro growth of T. gondii; cited from earlier work.
The test system of series [12] is P. falciparum. The arrangement: method as in PMID 11239932. The settings on record: P. falciparum growth; cited from earlier work.

As to `C=C(C)[C@@H]1CC[C@]2(CO)CC[C@]3(C)[C@H](CC[C@@H]4[C@@]5(C)CC[C@H](O)C(C)(C)[C@@H]5CC[C@]43C)[C@@H]12` [Betulin (1), betulin], in series [1] (Toxoplasma gondii, Vero), the inhibition at 10 µM was 44%. Moreover, in series [2], the “Selectivity index (SI)” value is greater than 6.0 and the IC50 was 13.3 ± 7.3 µM. The CC50 at 72 h in series [3] was greater than 80 µM. Moreover, the “inhibition of L. donovani” value in [4] is on record as 35.0%. Also, the CC50 in series [5] was 164 µM.
`C=C(C)[C@@H]1CC[C@]2(C=O)CC[C@]3(C)[C@H](CC[C@@H]4[C@@]5(C)CC[C@H](O)C(C)(C)[C@@H]5CC[C@]43C)[C@@H]12` [Betulinaldehyde (2), betulinaldehyde] showed an inhibition at 10 µM in series [1] (Toxoplasma gondii, Vero) of 93%. Moreover, in series [2], the “Selectivity index (SI)” value was greater than 15.7 and the IC50 is 5.1 ± 0.6 µM. In [3] (Vero cells (ATCC CCL-81)), this molecule showed a CC50 at 72 h greater than 80 µM.
In the case of `C=C(C)[C@@H]1CC[C@]2(C(=O)O)CC[C@]3(C)[C@H](CC[C@@H]4[C@@]5(C)CC[C@H](O)C(C)(C)[C@@H]5CC[C@]43C)[C@@H]12` [Betulinic acid (3), betulinic acid], in series [1] (Toxoplasma gondii, Vero), testing at 10 µM gave an inhibition of 49%. For the same molecule, in [2], the “Selectivity index (SI)” value was greater than 9.6 and 8.3 ± 2.7 µM corresponded to half-maximal inhibition (IC50). In series [3], the CC50 at 72 h was greater than 80 µM. Further, in [4], the “inhibition of L. donovani” value is reported as 39.8%.
For the molecule `C=C(C)[C@@H]1CC[C@]2(CO)CC[C@]3(C)[C@H](CC[C@@H]4[C@@]5(C)CCC(=O)C(C)(C)[C@@H]5CC[C@]43C)[C@@H]12` [Betulone (4), betulone], the inhibition at 10 µM in series [1] (Toxoplasma gondii, Vero) was determined as 99%. In addition, the results for the “Selectivity index (SI)” value in [2] and in [2] (listed as betulone) were greater than 29.6 and “greater than 29”, respectively. The IC50 in series [2] was 2.7 ± 1.2 µM; in series [6], 3 µM. In series [3], this molecule displayed a CC50 at 72 h greater than 80 µM.
For `C=C(C)C1CCC2(C(=O)O)CCC3(C)C(CCC4C5(C)CCC(=O)C(C)(C)C5CCC43C)C12` (stereo not drawn) [Betulonic acid (7), Betulonic acid], in series [2], the “Selectivity index (SI)” value is recorded as greater than 18.6 and the 50% inhibitory concentration (IC50) came to 4.3 ± 1.4 µM. This molecule had a CC50 at 72 h in series [3] (Vero cells (ATCC CCL-81)) greater than 80 µM. Moreover, the cytotoxicity result in series [7] (80 μM on Vero cells) was “without cytotoxicity”. Further, the “inhibition of L. donovani” value in [4] is recorded as 97.6%.
On to `C=C(C)C1CCC2(C(=O)OC)CCC3(C)C(CCC4C5(C)CCC(=O)C(C)(C)C5CCC43C)C12` (stereo not drawn) [Betulonic acid methyl ester (8), betulonic acid methyl ester], for which, in series [2], the “Selectivity index (SI)” value is greater than 25.8 and the IC50 was found to be 3.1 ± 0.4 µM. Also, the CC50 at 72 h in series [3] is greater than 80 µM.
As for `C=C(C)[C@@H]1CC[C@]2(C)CC[C@]3(C)[C@H](CC[C@@H]4[C@@]5(C)CCC(=O)C(C)(C)[C@@H]5CC[C@]43C)[C@@H]12` [Lupenone, lupenone], the “solubility in DMSO” value in series [8] is given as “not soluble in DMSO”.
In series [1] (Toxoplasma gondii, Vero), `C=C(C)[C@@H]1CC[C@]2(C)CC[C@]3(C)[C@H](CC[C@@H]4[C@@]5(C)CC[C@H](O)C(C)(C)[C@@H]5CC[C@]43C)[C@@H]12` [Lupeol (5), lupeol] returned an inhibition at 10 µM of 60%. In addition, in series [2], the “Selectivity index (SI)” value was greater than 5.8 and the IC50 was found to be 13.8 ± 4 µM. In [3] (Vero cells (ATCC CCL-81)), the CC50 at 72 h was greater than 80 µM.
Molecule `CCc1nc(N)nc(N)c1-c1ccc(Cl)cc1` [Pyrimethamine (10), pyrimethamine, reference compound] came in with an inhibition at 1 µM in series [1] (Toxoplasma gondii, Vero, 1 μM) of 78%. In [2], the “Selectivity index (SI)” value is given as 38.0 and the 50% inhibitory concentration (IC50) turned out to be 0.7 ± 0.2 µM. For the same molecule, in series [3] (Vero cells (ATCC CCL-81)), the CC50 at 72 h was found to be 27.7 µM. In series [7] (10 μM), the cytotoxicity result is “cytotoxic”.
As to `CC1(C)CC[C@]2(C(=O)O)CC[C@]3(C)C(=CC[C@@H]4[C@@]5(C)C[C@@H](O)[C@H](O)C(C)(C)[C@@H]5CC[C@]43C)[C@@H]2C1` [maslinic acid], the LD50 in series [9] was 53.8 µM; in series [10], 236.6 µM.
As to `Oc1cc(Cl)ccc1Oc1ccc(Cl)cc1Cl` [triclosan], the IC50 is 3 µM in series [11] and 1 µM in [12].
As to β-sitostenone [β-sitostenone (9)], the parasite growth inhibition entry is on record as “did not show any relevant activity” in [1] and “no specific activity” in [1] (listed as β-sitostenone).
